Measurements taken from patent US10202361B2, “Pyridazinones as herbicides” (E I DU PONT DE NEMOURS AND COMPANY, priority 2014, dated 2019).
Read-outs that look alike come from different tables or passages of the source.

What was measured:
Format in all cases: in vivo
[1] = tested on: poinsettia, wild (wild poinsettia, Euphorbia heterophylla); test: Test E pre-/postemergence greenhouse herbicide test; conditions: scale 0 to 100
[2] = tested on: blackgrass (Alopecurus myosuroides); test: Test C pre-/postemergence greenhouse herbicide test; conditions: Alopecurus myosuroides, Blackgrass, read-out: Plant response rating; for pest or weed control at 31 g/ha: 31 g ai/ha; for pest or weed control at 62 g/ha: 62 g ai/ha; for pest or weed control at 125 g/ha: 125 g ai/ha; for pest or weed control at 250 g/ha: 250 g ai/ha
Outline: (§1)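 Seeds in loam–sand blend sprayed preemergence, and 1- to 4-leaf plants (2–18 cm) sprayed postemergence, with compounds in non-phytotoxic solvent plus surfactant. Visual rating versus controls after 13–15 d in greenhouse, 0 (no effect) to 100 (complete control).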

[3] = tested on: wheat (winter wheat, Triticum aestivum); test: as above; conditions: Triticum aestivum, Wheat, read-out: Plant response rating; for plant injury at 62 g/ha: 62 g ai/ha; for plant injury at 125 g/ha: 125 g ai/ha; for plant injury at 250 g/ha: 250 g ai/ha
Outline: as §1

[4] = tested on: morningglory (Ipomoea coccinea); test: as above; conditions: Morningglory
Outline: as §1

soybean (Glycine max) = test: as above; conditions: Glycine max, Soybean, read-out: Plant response rating; for plant injury at 62 g/ha: 62 g ai/ha; for plant injury at 125 g/ha: 125 g ai/ha; for plant injury at 250 g/ha: 250 g ai/ha
Outline: as §1

[5] = tested on: waterhemp (common waterhemp, Amaranthus rudis); test: as above; conditions: Waterhemp
Outline: as §1

[6] = tested on: barnyardgrass (Echinochloa crus-galli); test: as above; conditions: Barnyardgrass
Outline: as §1

[7] = tested on: foxtail, giant (giant foxtail, Setaria faberii); test: as above; conditions: Setaria faberi, Foxtail, Giant, read-out: Plant response rating; for pest or weed control at 31 g/ha: 31 g ai/ha; for pest or weed control at 62 g/ha: 62 g ai/ha; for pest or weed control at 125 g/ha: 125 g ai/ha; for pest or weed control at 250 g/ha: 250 g ai/ha
Outline: as §1

[8] = tested on: velvetleaf (Abutilon theophrasti); test: as above; conditions: Abutilon theophrasti, Velvetleaf, read-out: Plant response rating; for pest or weed control at 62 g/ha: 62 g ai/ha; for pest or weed control at 125 g/ha: 125 g ai/ha; for pest or weed control at 250 g/ha: 250 g ai/ha
Outline: as §1

[9] = post-emergence, Postemergence, 31 g ai/ha

**Q.** `COc1cc(=O)n(-c2ccc(F)cc2)nc1Cc1ccnc(C(F)(F)F)c1` [Compound 17, 2-(4-fluorophenyl)-5-methoxy-6-[[2-(trifluoromethyl)-4-pyridinyl]methyl]-3 (2H)-pyridazinone] was tested. Which “Plant response rating: Poinsettia, Wild” value ([1]; Postemergence, 16 g ai/ha) did it give?
**A.** 20

**Q.** And the “Plant response rating: Poinsettia, Wild” value ([1]; Postemergence, 31 g ai/ha)?
**A.** 30

**Q.** What about the “Plant response rating: Poinsettia, Wild” value ([1]; Postemergence, 62 g ai/ha) of the same compound?
**A.** 40

**Q.** And the “Plant response rating: Poinsettia, Wild” value ([1]; Postemergence, 125 g ai/ha)?
**A.** 40

**Q.** What about the “Plant response rating: Poinsettia, Wild” value ([1]; Postemergence, 250 g ai/ha) of the same compound?
**A.** 50

**Q.** What about the “Plant response rating: Poinsettia, Wild” value ([1]; Preemergence, 16 g ai/ha) of the same compound?
**A.** 20

**Q.** What about the “Plant response rating: Poinsettia, Wild” value ([1]; Preemergence, 31 g ai/ha) of the same compound?
**A.** 20

**Q.** What about the “Plant response rating: Poinsettia, Wild” value ([1]; Preemergence, 62 g ai/ha) of the same compound?
**A.** 30

**Q.** What about the “Plant response rating: Poinsettia, Wild” value ([1]; Preemergence, 125 g ai/ha) of the same compound?
**A.** 40

**Q.** And the “Plant response rating: Poinsettia, Wild” value ([1]; Preemergence, 250 g ai/ha)?
**A.** 100

**Q.** What about the pest or weed control at 31 g/ha ([2]; post-emergence, Postemergence) of the same compound?
**A.** 5%

**Q.** What about the pest or weed control at 62 g/ha ([2]; post-emergence, Postemergence) of the same compound?
**A.** 5%

**Q.** And the pest or weed control at 125 g/ha ([2]; post-emergence, Postemergence)?
**A.** 5%

**Q.** And the pest or weed control at 250 g/ha ([2]; post-emergence, Postemergence)?
**A.** 5%

**Q.** What about the pest or weed control at 31 g/ha ([2]; pre-emergence, Preemergence) of the same compound?
**A.** 50%

**Q.** What about the pest or weed control at 62 g/ha ([2]; pre-emergence, Preemergence) of the same compound?
**A.** 80%

**Q.** And the pest or weed control at 125 g/ha ([2]; pre-emergence, Preemergence)?
**A.** 90%

**Q.** What about the pest or weed control at 250 g/ha ([2]; pre-emergence, Preemergence) of the same compound?
**A.** 95%

**Q.** What about the plant injury at 31 g/ha [3, 9] of the same compound?
**A.** 5%

**Q.** And the plant injury at 62 g/ha ([3]; post-emergence, Postemergence)?
**A.** 5%

**Q.** And the plant injury at 125 g/ha ([3]; post-emergence, Postemergence)?
**A.** 5%

**Q.** What about the plant injury at 250 g/ha ([3]; post-emergence, Postemergence) of the same compound?
**A.** 10%

**Q.** What about the plant injury at 62 g/ha ([3]; pre-emergence, Preemergence) of the same compound?
**A.** 5%

**Q.** What about the plant injury at 125 g/ha ([3]; pre-emergence, Preemergence) of the same compound?
**A.** 50%

**Q.** What about the plant injury at 250 g/ha ([3]; pre-emergence, Preemergence) of the same compound?
**A.** 65%

**Q.** And the Plant response rating ([4]; Postemergence, 31 g ai/ha)?
**A.** 65

**Q.** What about the Plant response rating ([4]; Postemergence, 62 g ai/ha) of the same compound?
**A.** 65

**Q.** What about the Plant response rating ([4]; Postemergence, 125 g ai/ha) of the same compound?
**A.** 65

**Q.** What about the Plant response rating ([4]; Postemergence, 250 g ai/ha) of the same compound?
**A.** 70

**Q.** And the Plant response rating ([4]; Preemergence, 31 g ai/ha)?
**A.** 85

**Q.** What about the Plant response rating ([4]; Preemergence, 62 g ai/ha) of the same compound?
**A.** 85

**Q.** What about the Plant response rating ([4]; Preemergence, 125 g ai/ha) of the same compound?
**A.** 100

**Q.** What about the Plant response rating ([4]; Preemergence, 250 g ai/ha) of the same compound?
**A.** 100

**Q.** What about the plant injury at 31 g/ha (soybean (Glycine max); [9]) of the same compound?
**A.** 80%

**Q.** What about the plant injury at 62 g/ha (soybean (Glycine max); post-emergence, Postemergence) of the same compound?
**A.** 90%

**Q.** What about the plant injury at 125 g/ha (soybean (Glycine max); post-emergence, Postemergence) of the same compound?
**A.** 90%

**Q.** And the plant injury at 250 g/ha (soybean (Glycine max); post-emergence, Postemergence)?
**A.** 90%

**Q.** What about the plant injury at 62 g/ha (soybean (Glycine max); pre-emergence, Preemergence) of the same compound?
**A.** 55%

**Q.** What about the plant injury at 125 g/ha (soybean (Glycine max); pre-emergence, Preemergence) of the same compound?
**A.** 95%

**Q.** And the plant injury at 250 g/ha (soybean (Glycine max); pre-emergence, Preemergence)?
**A.** 98%

**Q.** And the Plant response rating ([5]; Postemergence, 31 g ai/ha)?
**A.** 60

**Q.** What about the Plant response rating ([5]; Postemergence, 125 g ai/ha) of the same compound?
**A.** 85

**Q.** What about the Plant response rating ([5]; Postemergence, 250 g ai/ha) of the same compound?
**A.** 85

**Q.** And the Plant response rating ([5]; Preemergence, 62 g ai/ha)?
**A.** 100

**Q.** And the Plant response rating ([5]; Preemergence, 125 g ai/ha)?
**A.** 100

**Q.** And the Plant response rating ([5]; Preemergence, 250 g ai/ha)?
**A.** 100

**Q.** What about the Plant response rating ([6]; Postemergence, 31 g ai/ha) of the same compound?
**A.** 5

**Q.** And the Plant response rating ([6]; Postemergence, 62 g ai/ha)?
**A.** 5

**Q.** What about the Plant response rating ([6]; Postemergence, 125 g ai/ha) of the same compound?
**A.** 10

**Q.** And the Plant response rating ([6]; Postemergence, 250 g ai/ha)?
**A.** 35

**Q.** And the Plant response rating ([6]; Preemergence, 31 g ai/ha)?
**A.** 80

**Q.** What about the Plant response rating ([6]; Preemergence, 62 g ai/ha) of the same compound?
**A.** 90

**Q.** And the Plant response rating ([6]; Preemergence, 125 g ai/ha)?
**A.** 100

**Q.** And the Plant response rating ([6]; Preemergence, 250 g ai/ha)?
**A.** 100

**Q.** What about the pest or weed control at 31 g/ha ([7]; post-emergence, Postemergence) of the same compound?
**A.** 10%

**Q.** And the pest or weed control at 62 g/ha ([7]; post-emergence, Postemergence)?
**A.** 10%

**Q.** And the pest or weed control at 125 g/ha ([7]; post-emergence, Postemergence)?
**A.** 20%

**Q.** What about the pest or weed control at 250 g/ha ([7]; post-emergence, Postemergence) of the same compound?
**A.** 45%

**Q.** What about the pest or weed control at 31 g/ha ([7]; pre-emergence, Preemergence) of the same compound?
**A.** 100%

**Q.** And the pest or weed control at 62 g/ha ([7]; pre-emergence, Preemergence)?
**A.** 100%

**Q.** And the pest or weed control at 125 g/ha ([7]; pre-emergence, Preemergence)?
**A.** 100%

**Q.** And the pest or weed control at 250 g/ha ([7]; pre-emergence, Preemergence)?
**A.** 100%

**Q.** And the pest or weed control at 31 g/ha [8, 9]?
**A.** 20%

**Q.** And the pest or weed control at 62 g/ha ([8]; post-emergence, Postemergence)?
**A.** 20%

**Q.** What about the pest or weed control at 125 g/ha ([8]; post-emergence, Postemergence) of the same compound?
**A.** 30%

**Q.** And the pest or weed control at 250 g/ha ([8]; post-emergence, Postemergence)?
**A.** 45%

**Q.** What about the pest or weed control at 62 g/ha ([8]; pre-emergence, Preemergence) of the same compound?
**A.** 75%

**Q.** And the pest or weed control at 125 g/ha ([8]; pre-emergence, Preemergence)?
**A.** 100%

**Q.** And the pest or weed control at 250 g/ha ([8]; pre-emergence, Preemergence)?
**A.** 100%
